Values quoted from earlier work, collected in PubChem BioAssay AID1259409 (Chemical Carcinogenesis Research Information System (CCRIS), 2018).

Tested on: rodent chemically induced tumor inhibition, incidence and multiplicity
Assay: CCRIS tumor inhibitor studies

For COc1ccc2c(c1)c(CC(=O)O)c(C)n2C(=O)c1ccc(Cl)cc1, the “tumour outcome (control, treated, inhibition, significance)” value (Carcinogen: METHYLAZOXYMETHANOL, 590-96-5, Dose [Inhibitor]: 7.5 MG/KG BW DAILY FOR 3 WK STARTING 27 WK AFTER THE START OF CARCINOGEN TREATMENT (STUDY DURATION: 30 WK), Route [Inhibitor]: INTRARECTAL, Species: RAT, Strain/Sex: DONRYU/MALE, Target Tissue: Type of Lesion: SMALL INTESTINE: ADENOCARCINOMA, Dose [Carcinogen]: 20 MG/KG BW 1/WK FOR 6 WK, Promoter: NONE USED) is listed as 10/23 (43%), 4/30 (13%), 70%, p<0.05, the “tumour outcome (control, treated, inhibition, significance)” value (Carcinogen: N,N-DIETHYLNITROSAMINE, 55-18-5, Dose [Inhibitor]: 0.016 MG/ML IN DRINKING WATER 3/WK FOR 4 MO STARTING 4 MO AFTER THE START OF CARCINOGEN TREATMENT AND CONTINUING FOR DUR, Route [Inhibitor]: ORAL, Species: MOUSE, Strain/Sex: C57BL/MALE, Target Tissue: Type of Lesion: ESOPHAGUS: TUMOR, Dose [Carcinogen]: 0.04 ML/1000 ML DRINKING WATER DAILY FOR 30 D THEN EVERY SECOND WK TO COMPLETE 5 MO PERIOD, Promoter: NONE USED) is listed as 16/16 (100%), 19/19 (100%), 0%, not significant and the “tumour outcome (control, treated, inhibition, significance)” value (Carcinogen: N,N-DIETHYLNITROSAMINE, 55-18-5, Dose [Inhibitor]: 0.016 MG/ML IN DRINKING WATER GIVEN TOGETHER WITH CARCINOGEN STARTING AT THE BEGINNING OF THE STUDY DAILY FOR 14 D AND 3, Route [Inhibitor]: ORAL, Species: MOUSE, Strain/Sex: C57BL/MALE, Target Tissue: Type of Lesion: ESOPHAGUS: TUMOR, Dose [Carcinogen]: 0.04 ML/1000 ML DRINKING WATER DAILY FOR 14 D THEN 3 D/WK FOR DURATION OF STUDY, Promoter: NONE USED) is listed as 24/24 (100%), 45/45 (100%), 0%, not significant. For the same molecule, the “tumour outcome (control, treated, inhibition, significance)” value (Carcinogen: N,N-DIETHYLNITROSAMINE, 55-18-5, Dose [Inhibitor]: 0.016 MG/ML IN DRINKING WATER GIVEN TOGETHER WITH CARCINOGEN STARTING AT THE BEGINNING OF THE STUDY DAILY FOR 30 D THEN, Route [Inhibitor]: ORAL, Species: MOUSE, Strain/Sex: C57BL/MALE, Target Tissue: Type of Lesion: ESOPHAGUS: TUMOR, Dose [Carcinogen]: 0.04 ML/1000 ML DRINKING WATER GIVEN TOGETHER WITH AGENT, Promoter: NONE USED) was 8/8 (100%), 16/16 (100%), 0%, not significant, the “tumour outcome (control, treated, inhibition, significance)” value (Carcinogen: N-BUTYL-N-(4-HYDROXYBUTYL)NITROSAMINE, 3817-11-6, Dose [Inhibitor]: 0, 7.5 MG/KG DIET BEGINNING 1 WK PRIOR TO CARCINOGEN TREATMENT AND CONTINUING FOR DURATION OF STUDY (STUDY DURATION: 187, Route [Inhibitor]: ORAL, Species: MOUSE, Strain/Sex: BDF/MALE, Target Tissue: Type of Lesion: URINARY BLADDER: TUMOR, Dose [Carcinogen]: 7.5 MG IN 0.1 ML OF ETHANOL:WATER (20:80) 1/WK FOR 8 WK, Promoter: NONE USED) was 24%, 5%, 79%, p<0.05 and the “tumour outcome (control, treated, inhibition, significance)” value (Carcinogen: N-BUTYL-N-(4-HYDROXYBUTYL)NITROSAMINE, 3817-11-6, Dose [Inhibitor]: 0, 15 MG/KG DIET BEGINNING 1 WK PRIOR TO CARCINOGEN TREATMENT AND CONTINUING FOR DURATION OF STUDY (STUDY DURATION: 187, Route [Inhibitor]: ORAL, Species: MOUSE, Strain/Sex: BDF/MALE, Target Tissue: Type of Lesion: URINARY BLADDER: TUMOR, Dose [Carcinogen]: 7.5 MG IN 0.1 ML OF ETHANOL:WATER (20:80) 1/WK FOR 8 WK, Promoter: NONE USED) was 24%, 0%, 100%, p<0.01. For the same molecule, the “tumour outcome (control, treated, inhibition, significance)” value (Carcinogen: N-BUTYL-N-(4-HYDROXYBUTYL)NITROSAMINE, 3817-11-6, Dose [Inhibitor]: 0, 20 PPM IN DRINKING WATER FOR 20 WK BEGINNING POST PROMOTER TREATMENT (STUDY DURATION: 44 WK), Route [Inhibitor]: ORAL, Species: RAT, Strain/Sex: F344/MALE, Target Tissue: Type of Lesion: URINARY BLADDER: PAPILLOMA, Dose [Carcinogen]: 0.05% IN DRINKING WATER FOR 4 WK, Promoter: BUTYLATED HYDROXYANISOLE, 25013-16-5) was 6/15 (40%), 9/15 (60%), -50%, not significant, the “tumour outcome (control, treated, inhibition, significance)” value (Carcinogen: N-BUTYL-N-(4-HYDROXYBUTYL)NITROSAMINE, 3817-11-6, Dose [Inhibitor]: 0, 20 PPM IN DRINKING WATER FOR 20 WK BEGINNING POST PROMOTER TREATMENT (STUDY DURATION: 44 WK), Route [Inhibitor]: ORAL, Species: RAT, Strain/Sex: F344/MALE, Target Tissue: Type of Lesion: URINARY BLADDER: PAPILLOMA, Dose [Carcinogen]: 0.05% IN DRINKING WATER FOR 4 WK, Promoter: SODIUM L-ASCORBATE, 134-03-2) was 10/15 (67%), 10/15 (67%), 0%, not significant and the “tumour outcome (control, treated, inhibition, significance)” value (Carcinogen: N-BUTYL-N-(4-HYDROXYBUTYL)NITROSAMINE, 3817-11-6, Dose [Inhibitor]: 0, 20 PPM IN DRINKING WATER FOR 20 WK BEGINNING POST PROMOTER TREATMENT (STUDY DURATION: 44 WK), Route [Inhibitor]: ORAL, Species: RAT, Strain/Sex: F344/MALE, Target Tissue: Type of Lesion: URINARY BLADDER: TRANSITIONAL CELL CARCINOMA, Dose [Carcinogen]: 0.05% IN DRINKING WATER FOR 4 WK, Promoter: BUTYLATED HYDROXYANISOLE, 25013-16-5) was 3/15 (20%), 3/15 (20%), 0%, not significant. For the same molecule, the “tumour outcome (control, treated, inhibition, significance)” value (Carcinogen: N-BUTYL-N-(4-HYDROXYBUTYL)NITROSAMINE, 3817-11-6, Dose [Inhibitor]: 0, 20 PPM IN DRINKING WATER FOR 20 WK BEGINNING POST PROMOTER TREATMENT (STUDY DURATION: 44 WK), Route [Inhibitor]: ORAL, Species: RAT, Strain/Sex: F344/MALE, Target Tissue: Type of Lesion: URINARY BLADDER: TRANSITIONAL CELL CARCINOMA, Dose [Carcinogen]: 0.05% IN DRINKING WATER FOR 4 WK, Promoter: SODIUM L-ASCORBATE, 134-03-2) was 6/15 (40%), 2/15 (13%), 67%, not significant.
